Test results taken from ChEMBL document CHEMBL3244418, “Synthesis and central nervous system activity of quinazolones related to 2-methyl-3-(o-tolyl)-4(3H)-quinazolone (methaqualone)” (J Med Chem, 1977).

Experiments:
Mus musculus [1] = assay: Hypnotic activity in ip dosed CFLP mouse assessed as loss of righting reflex; type: functional
Mus musculus [2] = assay: Hypnotic activity in ip dosed CFLP mouse after 30 mins by rotary drum test; type: functional; details: 0.5 h
Mus musculus [3] = assay: Anticonvulsant activity in ip dosed CFLP mouse assessed as inhibition of maximum electroshock-induced seizure; type: functional
Mus musculus [4] = assay: Anticonvulsant activity in ip dosed CFLP mouse assessed as inhibition of pentylenetetrazole-induced seizure; type: functional
Mus musculus [5] = assay: […] activity in po dosed CFLP mouse assessed as inhibition of benzoquinone-induced writhing; type: functional
[6] = Chemical stability of the compound assessed as methaqualone/sulfur/disulfide formation; type: physicochemical

| SMILES | ED50 (Mus musculus [1]) [mg/kg] | ED50 (Mus musculus [2]) [mg/kg] | ED50 (Mus musculus [3]) [mg/kg] | ED50 (Mus musculus [4]) [mg/kg] | ED50 (Mus musculus [5]) [mg/kg] | Stability [6] |
| --- | --- | --- | --- | --- | --- | --- |
| Br.C/N=C(\NC)SCc1nc2ccccc2c(=O)n1-c1ccccc1C | 100 | 32 | 25 | 23 | 51 | – |
| Br.Cc1c(Cl)cccc1-n1c(CSC(=N)N)nc2ccccc2c1=O | 400 | 57 | 42 | – | 200 | – |
| Br.O=c1c2ccccc2nc(CSC2=NCCN2)n1-c1ccccc1Cl | 50 | 12 | 18 | 25 | – | – |
| CC(=O)OCc1nc2ccccc2c(=O)n1-c1ccccc1C | > 400 | 155 | 120 | 150 | 200 | – |
| Br.C/N=C(\NC)SCc1nc2ccccc2c(=O)n1-c1ccccc1 | > 400 | > 50 | 40 | 50 | 200 | – |
| Cc1ccccc1-n1c(CSC(N)=O)nc2ccccc2c1=O | 400 | 200 | 120 | 56 | > 200 | – |
| Br.CCCC/N=C(\NCCCC)SCc1nc2ccccc2c(=O)n1-c1ccccc1C | > 100 | 40 | > 40 | > 40 | 200 | – |
| Br.N=C(N)SCc1nc2ccccc2c(=O)n1-c1ccccc1 | 200 | 42 | 53 | > 50 | – | – |
| Cc1ccccc1-n1c(C(F)F)nc2ccccc2c1=O | > 400 | 100 | > 100 | 50 | – | – |
| COCc1nc2ccccc2c(=O)n1-c1ccccc1C | 300 | 22 | 26 | 100 | 100 | – |
| Br.N=C(N)SCc1nc2ccccc2c(=O)n1-c1ccccc1F | 400 | 43 | 38 | 75 | 100 | – |
| Cc1ccccc1-n1c(COC(=O)CCC(=O)O)nc2ccccc2c1=O | > 400 | > 200 | > 200 | 150 | > 200 | – |
| Cc1ccccc1-n1c(CSC(N)=O)nc2ccccc2c1=O.Cl | 35 | 19 | 34 | – | 200 | – |
| Br.Cc1ccccc1-n1c(CSC2=NCCN2)nc2ccccc2c1=O | 60 | 42 | 44 | 24 | > 50 | – |
| Cc1ccccc1-n1c(CO)nc2ccccc2c1=O | > 400 | 56 | 135 | 70 | > 200 | – |
| Br.Cc1ccccc1-n1c(CSC2=NCCCN2)nc2ccccc2c1=O | 200 | 39 | 50 | – | 170 | – |
| Br.Cc1c(Cl)cccc1-n1c(CSC2=NCCN2)nc2ccccc2c1=O | 80 | > 25 | > 25 | 25 | – | – |
| Cc1ccccc1-n1c(CI)nc2ccccc2c1=O | > 400 | > 200 | > 200 | – | – | – |
| CCOCc1nc2ccccc2c(=O)n1-c1ccccc1C | 300 | 27 | 64 | – | > 200 | – |
| Br.C/N=C(\NC)SCc1nc2ccccc2c(=O)n1-c1ccccc1F | > 400 | 54 | 45 | > 50 | > 50 | – |

| SMILES | ED50 (Mus musculus [1]) [mg/kg] | ED50 (Mus musculus [2]) [mg/kg] | ED50 (Mus musculus [3]) [mg/kg] | ED50 (Mus musculus [4]) [mg/kg] | ED50 (Mus musculus [5]) [mg/kg] | Stability [6] |
| --- | --- | --- | --- | --- | --- | --- |
| Cc1ccccc1-n1c(CSS(=O)(=O)O)nc2ccccc2c1=O | 150 | 44 | 82 | 39 | > 200 | – |
| Br.Cc1ccc([N+](=O)[O-])cc1-n1c(CSC(=N)N)nc2ccccc2c1=O | > 400 | – | – | – | > 200 | – |
| Cc1ccccc1-n1c(C(F)(F)F)nc2ccccc2c1=O | > 400 | > 200 | > 200 | > 200 | > 200 | – |
| Br.O=c1c2ccccc2nc(CSC2=NCCN2)n1-c1ccccc1F | 200 | 32 | 37.5 | 100 | 90 | – |
| Br.O=c1c2ccccc2nc(CSC2=NCCN2)n1-c1ccc(Cl)cc1 | > 200 | 47 | 35 | 37.5 | > 75 | – |
| CCCCOCc1nc2ccccc2c(=O)n1-c1ccccc1C | > 400 | 88 | 120 | – | > 200 | – |
| Br.Cc1ccc([N+](=O)[O-])cc1-n1c(CSC2=NCCN2)nc2ccccc2c1=O | > 400 | 86 | 100 | 150 | > 200 | – |
| Br.C/N=C(\NC)SCc1nc2ccccc2c(=O)n1-c1cc([N+](=O)[O-])ccc1C | > 50 | > 10 | > 10 | > 10 | > 10 | – |
| Cc1ccccc1-n1c(C)nc2ccccc2c1=O [METHAQUALONE] | 96 | 30 | 48 | 14 | 36 | – |
| Cc1ccccc1-n1c(CBr)nc2ccccc2c1=O | > 200 | > 200 | > 200 | – | > 150 | – |
| Br.N=C(N)SCc1nc2ccccc2c(=O)n1-c1ccccc1Cl | 200 | – | – | – | 90 | – |
| Br.Cc1ccccc1-n1c(CS/C(N)=N/N)nc2ccccc2c1=O | 100 | 15.5 | 35 | 23 | – | – |
| Br.C/N=C(/NC)SCc1nc2ccccc2c(=O)n1-c1ccccc1Cl | 150 | 27 | 30 | 40 | 200 | – |
| CCCSCc1nc2ccccc2c(=O)n1-c1ccccc1C | > 800 | 100 | 160 | 70 | > 200 | – |
| Br.O=c1c2ccccc2nc(CSC2=NCCN2)n1-c1ccccc1 | 200 | > 50 | 50 | > 50 | 50 | – |
| Cc1ccccc1-n1c(C(Br)Br)nc2ccccc2c1=O | > 800 | > 200 | > 200 | > 200 | > 400 | – |
| Br.Cc1ccccc1-n1c(CSC(=N)N)nc2ccccc2c1=O | 56 | 35 | 65 | 28 | > 50 | – |
| CCCOCc1nc2ccccc2c(=O)n1-c1ccccc1C | > 400 | – | > 200 | 150 | > 200 | – |
| Cc1ccccc1-n1c(CF)nc2ccccc2c1=O.Cl | 75 | 18 | 14.5 | 16 | – | – |
| COc1ccccc1-n1c(CS)nc2ccccc2c1=O | – | – | – | – | – | Unstable |
